Values of other authors, collected in patent US20260216230A1, “SERRATIA ANTICANCER POLYSACCHARIDE COMPOSITIONS AND METHODS” (Board of Supervisors of Louisiana State University and …, priority 2023, published 2026).

Tested on: refractory Stage 4 patients
Conditions: phase I

CC(=O)O[C@H]1C(=O)[C@@]2(C)[C@H]([C@H](OC(=O)c3ccccc3)[C@]3(O)C[C@H](OC(=O)[C@H](O)[C@@H](NC(=O)c4ccccc4)c4ccccc4)C(C)=C1C3(C)C)[C@]1(OC(C)=O)CO[C@@H]1C[C@@H]2O [Taxol]
effectivity: 12%
